Results from patent US11535611B2, “Pyrazolo[3,4-B]pyridines and imidazo[1,5-B]pyridazines as PDE1 inhibitors” (H. Lundbeck A/S, priority 2017, dated 2022).
pIC50: −log10 of the molar value.

How the values were obtained:
Format in all cases: biochemical
PDE1C = PDE1C (Homo sapiens (Human), UniProt Q14123); test: PDE1 inhibition assay, PDE1C; conditions: for inhibition at 1 µM: @ 1 μM compound, read-out: PDE1 C, % inhibition @ 1 μM; for pIC50: 15 nM tritium labelled cAMP, 1 hr at room temperature, SPA beads, read-out: PDE1 C, IC50
Sequence of PDE1C (Q14123 whole entry): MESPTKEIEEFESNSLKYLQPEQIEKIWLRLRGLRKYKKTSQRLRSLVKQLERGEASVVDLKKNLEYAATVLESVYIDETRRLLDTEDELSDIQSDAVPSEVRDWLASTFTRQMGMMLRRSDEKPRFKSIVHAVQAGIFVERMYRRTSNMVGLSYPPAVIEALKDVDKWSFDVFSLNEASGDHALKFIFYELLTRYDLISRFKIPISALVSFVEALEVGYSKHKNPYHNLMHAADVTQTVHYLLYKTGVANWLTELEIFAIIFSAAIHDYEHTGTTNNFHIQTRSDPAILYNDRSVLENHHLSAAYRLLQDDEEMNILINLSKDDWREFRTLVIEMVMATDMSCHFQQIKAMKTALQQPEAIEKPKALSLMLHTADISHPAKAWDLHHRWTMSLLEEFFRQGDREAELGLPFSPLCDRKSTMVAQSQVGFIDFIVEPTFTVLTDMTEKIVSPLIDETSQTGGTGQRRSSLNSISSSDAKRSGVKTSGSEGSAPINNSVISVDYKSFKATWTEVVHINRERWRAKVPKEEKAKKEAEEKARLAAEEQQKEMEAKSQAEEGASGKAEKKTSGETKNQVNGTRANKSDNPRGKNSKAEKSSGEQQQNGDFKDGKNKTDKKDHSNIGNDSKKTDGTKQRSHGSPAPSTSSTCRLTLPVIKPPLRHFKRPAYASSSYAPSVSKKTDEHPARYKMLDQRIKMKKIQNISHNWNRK
Procedure: (§1) PDE1A, PDE1B and PDE1C assays were performed as follows: the assays were performed in 60 μL samples containing a fixed amount of the PDE1 enzyme (sufficient to convert 20-25% of the cyclic nucleotide substrate), a buffer (50 mM HEPES (4-(2-hydroxyethyl)-1-piperazineethanesulfonic acid) pH 7.6; 10 mM MgCl2; 0.02% Tween20), 0.1 mg/ml BSA (bovine serum albumin), 15 nM tritium labelled cAMP and varying amounts of inhibitors. Reactions were initiated by addition of the cyclic nucleotide substrate, and reactions were allowed to proceed for 1 hr at room temperature before being terminated through mixing with 20 μL (0.2 mg) yttrium silicate SPA beads (PerkinElmer). The beads were allowed to settle for 1 hour in the dark before the plates were counted in a Wallac 1450 Microbeta counter. The measured signals were converted to activity relative to an uninhibited control (100%) and IC50 values were calculated using XIFit (model 205, IDBS).

PDE1A = PDE1A (Homo sapiens (Human), UniProt P54750); test: PDE1 inhibition assay, PDE1A; conditions: for inhibition at 1 µM: @ 1 μM compound; for pIC50: 15 nM tritium labelled cAMP, 1 hr at room temperature, SPA beads
Sequence of PDE1A (P54750 whole entry): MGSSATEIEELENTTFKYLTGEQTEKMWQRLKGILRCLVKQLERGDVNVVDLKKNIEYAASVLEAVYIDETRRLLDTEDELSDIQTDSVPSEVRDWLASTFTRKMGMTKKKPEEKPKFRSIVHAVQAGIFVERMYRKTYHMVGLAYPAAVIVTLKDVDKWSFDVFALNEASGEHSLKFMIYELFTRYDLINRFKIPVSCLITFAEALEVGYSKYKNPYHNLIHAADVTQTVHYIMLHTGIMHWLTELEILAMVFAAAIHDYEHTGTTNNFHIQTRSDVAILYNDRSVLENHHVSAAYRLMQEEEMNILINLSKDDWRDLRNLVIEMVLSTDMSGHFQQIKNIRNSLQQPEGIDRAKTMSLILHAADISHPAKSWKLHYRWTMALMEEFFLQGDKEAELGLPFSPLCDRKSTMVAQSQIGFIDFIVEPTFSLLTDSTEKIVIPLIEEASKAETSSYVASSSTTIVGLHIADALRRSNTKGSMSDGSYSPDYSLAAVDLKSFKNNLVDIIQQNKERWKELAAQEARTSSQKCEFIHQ
Procedure: as §1

PDE1B = PDE1B (Homo sapiens (Human), UniProt Q01064); test: PDE1 inhibition assay, PDE1B; conditions: 15 nM tritium labelled cAMP, 1 hr at room temperature, SPA beads; read-out: PDE1 B, IC50
Sequence of PDE1B (Q01064 whole entry): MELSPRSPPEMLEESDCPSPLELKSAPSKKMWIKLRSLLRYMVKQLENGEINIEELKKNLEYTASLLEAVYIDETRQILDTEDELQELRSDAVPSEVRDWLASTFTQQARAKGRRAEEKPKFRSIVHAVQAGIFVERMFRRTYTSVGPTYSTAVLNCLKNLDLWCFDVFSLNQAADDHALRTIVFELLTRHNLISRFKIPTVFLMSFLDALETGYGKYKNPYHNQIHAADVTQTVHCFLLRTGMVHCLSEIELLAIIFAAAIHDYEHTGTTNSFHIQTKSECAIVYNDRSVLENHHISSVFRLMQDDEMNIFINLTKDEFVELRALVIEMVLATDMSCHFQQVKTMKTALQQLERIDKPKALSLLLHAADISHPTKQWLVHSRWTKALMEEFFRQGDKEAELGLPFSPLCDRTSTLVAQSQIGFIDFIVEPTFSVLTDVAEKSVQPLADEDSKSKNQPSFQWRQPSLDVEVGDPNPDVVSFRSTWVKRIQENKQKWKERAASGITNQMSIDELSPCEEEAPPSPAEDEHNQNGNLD
Procedure: as §1

inhibition at 1 µM (PDE1C) [%]	inhibition at 1 µM (PDE1A) [%]	pIC50 (PDE1B)	pIC50 (PDE1C)	pIC50 (PDE1A)	inhibition at 10 µM (PDE1A; @ 10 μM compound) [%]	SMILES
29	27	6.26	–	–	–	CCOc1ncccc1-c1cc(N2CCCC2)c2c(cnn2C2CCOC2)n1 (racemic) [Example 3, (±)-5-(2-ethoxy-3-pyridyl)-7-pyrrolidin-1-yl-1-tetrahydrofuran-3-yl-pyrazolo[4,3-b]pyridine]
20	47	6.35	–	–	–	CCOc1ncccc1-c1cc(NC2CCOC2)c2c(cnn2C2COC2)n1 (racemic) [Example 5, (±)-5-(2-ethoxy-3-pyridyl)-1-(oxetan-3-yl)-N-tetrahydrofuran-3-yl-pyrazolo[4,3-b]pyridin-7-amine]
–	–	7.96	6.97	7.15	–	CCOc1ncccc1-c1cc(NCC2CCC(=O)N2C)c2c(n1)c(C)nn2C(C)C (racemic) [Example 67, (±)-5-[[[5-(2-ethoxy-3-pyridyl)-1-isopropyl-3-methyl-pyrazolo[4,3-b]pyridin-7-yl]amino]methyl]-1-methyl-pyrrolidin-2-one]
–	–	8.05	6.95	7.21	–	CCOc1ncccc1-c1ccn2c(C(C)CC)nc(C)c2n1 (racemic) [Example 76, (±)-2-(2-ethoxy-3-pyridyl)-8-methyl-6-sec-butyl-imidazo[1,5-a]pyrimidine]
–	–	6.84	5.79	5.95	–	CCOc1ncccc1-c1ccn2c(C3CCOC3)nc(C)c2n1 (racemic) [Example 81, (±)-2-(2-ethoxy-3-pyridyl)-8-methyl-6-tetrahydrofuran-3-yl-imidazo[1,5-a]pyrimidine]
26	42	6.42	–	–	–	CCOc1ncccc1-c1cc(N2CCC(C)(F)C2)c2c(cnn2C)n1 (racemic) [Example 87, (±)-5-(2-ethoxy-3-pyridyl)-7-(3-fluoro-3-methyl-pyrrolidin-1-yl)-1-methyl-pyrazolo[4,3-b]pyridine]
–	–	7.09	5.83	6.24	–	CCOc1ncccc1-c1cc(N[C@@H]2COC[C@H]2OC)c2c(cnn2C(C)C)n1 (relative stereo) [Example 11, 5-(2-ethoxy-3-pyridyl)-1-isopropyl-N-[trans-4-methoxytetrahydrofuran-3-yl]pyrazolo[4,3-b]pyridin-7-amine]
–	–	7.07	5.51	6.49	–	CCOc1ncccc1-c1cc(N[C@@H]2CCOC2)c2c(cnn2CC)n1 (single isomer, unassigned) [Example 19, 5-(2-ethoxy-3-pyridyl)-1-ethyl-N-[tetrahydrofuran-3-yl]pyrazolo[4,3-b]pyridin-7-amine]
–	–	6.75	6.02	6.33	–	CCOc1ncccc1-c1cc(N[C@@H]2CCOC2)c2c(cnn2CC)n1 (single isomer, unassigned) [Example 20, 5-(2-ethoxy-3-pyridyl)-1-ethyl-N-[tetrahydrofuran-3-yl]pyrazolo[4,3-b]pyridin-7-amine]
–	–	7.32	–	–	–	CCOc1ncccc1-c1cc(N[C@H]2CCOC2)c2c(cnn2C(C)C)n1 (single isomer, unassigned) [Example 21, 5-(2-ethoxy-3-pyridyl)-1-isopropyl-N-[tetrahydrofuran-3-yl]pyrazolo[4,3-b]pyridin-7-amine]
–	–	7.49	–	–	–	CCOc1ncccc1-c1cc(N[C@H]2CCOC2)c2c(cnn2C(C)C)n1 (single isomer, unassigned) [Example 22, 5-(2-ethoxy-3-pyridyl)-1-isopropyl-N-[tetrahydrofuran-3-yl]pyrazolo[4,3-b]pyridin-7-amine]
–	–	6.77	5.59	6.32	–	CCCn1ncc2nc(-c3cccnc3OCC)cc(N[C@@H]3CCOC3)c21 (single isomer, unassigned) [Example 23, 5-(2-ethoxy-3-pyridyl)-1-propyl-N-[tetrahydrofuran-3-yl]pyrazolo[4,3-b]pyridin-7-amine]
–	–	6.75	6.15	6.49	–	CCCn1ncc2nc(-c3cccnc3OCC)cc(N[C@@H]3CCOC3)c21 (single isomer, unassigned) [Example 24, 5-(2-ethoxy-3-pyridyl)-1-propyl-N-[tetrahydrofuran-3-yl]pyrazolo[4,3-b]pyridin-7-amine]
–	–	8.22	7.11	7.29	–	CCOc1ncccc1-c1ccn2c([C@H](C)CC)nc(C)c2n1 (single isomer, unassigned) [Example 83, 2-(2-ethoxy-3-pyridyl)-8-methyl-6-[1-methylpropyl]imidazo[1,5-a]pyrimidine]
–	–	7.48	6.49	6.80	–	CCOc1ncccc1-c1ccn2c([C@H](C)CC)nc(C)c2n1 (single isomer, unassigned) [Example 84, 2-(2-ethoxy-3-pyridyl)-8-methyl-6-[1-methylpropyl]imidazo[1,5-a]pyrimidine]
–	–	6.04	5.74	5.52	–	CCOc1ncncc1-c1cc(NC2CCOC2)c2c(cnn2C(C)C)n1 (stereo in doubt) [Example 50, 5-(4-ethoxypyrimidin-5-yl)-1-isopropyl-N-[(3R)-tetrahydrofuran-3-yl]pyrazolo[4,3-b]pyridin-7-amine]
49	70	6.77	–	–	–	CCOc1ncccc1-c1cc(N2CCCC2)c2c(n1)c(C)nn2C [Example 1, 5-(2-ethoxy-3-pyridyl)-1,3-dimethyl-7-pyrrolidin-1-yl-pyrazolo[4,3-b]pyridine]
–	13	6.35	6.39	–	–	CCOc1ncccc1-c1cc(NC2CCOC2)c2c(cnn2C2CCOC2)n1 (centres unmarked) [Example 2, 5-(2-ethoxy-3-pyridyl)-N,1-di(tetrahydrofuran-3-yl)pyrazolo[4,3-b]pyridin-7-amine]
56	–	7.02	–	6.19	–	CCOc1ncccc1-c1cc(N2CCCC2)c2c(cnn2C2COC2)n1 [Example 4, 5-(2-ethoxy-3-pyridyl)-1-(oxetan-3-yl)-7-pyrrolidin-1-yl-pyrazolo[4,3-b]pyridine]
–	–	6.95	5.86	6.19	–	CCOc1ncccc1-c1cc(NC[C@@H]2CCCO2)c2c(cnn2C(C)C)n1 [Example 6, 5-(2-ethoxy-3-pyridyl)-1-isopropyl-N-[[(2S)-tetrahydrofuran-2-yl]methyl]pyrazolo[4,3-b]pyridin-7-amine]
–	–	7.08	5.77	6.35	–	CCOc1ncccc1-c1cc(NC[C@H]2CCCO2)c2c(cnn2C(C)C)n1 [Example 7, 5-(2-ethoxy-3-pyridyl)-1-isopropyl-N-[[(2R)-tetrahydrofuran-2-yl]methyl]pyrazolo[4,3-b]pyridin-7-amine]
–	–	6.37	5.54	5.67	–	CCOc1ncccc1-c1cc(N[C@@H]2CCCOC2)c2c(cnn2C(C)C)n1 [Example 8, 5-(2-ethoxy-3-pyridyl)-1-isopropyl-N-[(3R)-tetrahydropyran-3-yl]pyrazolo[4,3-b]pyridin-7-amine]
–	–	6.53	5.57	6.16	–	CCOc1ncccc1-c1cc(N[C@H]2CCCOC2)c2c(cnn2C(C)C)n1 [Example 9, 5-(2-ethoxy-3-pyridyl)-1-isopropyl-N-[(3S)-tetrahydropyran-3-yl]pyrazolo[4,3-b]pyridin-7-amine]
–	–	6.90	5.57	–	71	CCOc1ncccc1-c1cc(NC2CCOCC2)c2c(cnn2C(C)C)n1 [Example 10, 5-(2-ethoxy-3-pyridyl)-1-isopropyl-N-tetrahydropyran-4-yl-pyrazolo[4,3-b]pyridin-7-amine]
–	–	6.97	5.65	5.95	–	CCOc1ncccc1-c1cc(NC(C)C)c2c(cnn2C(C)C)n1 [Example 12, 5-(2-ethoxy-3-pyridyl)-N,1-diisopropyl-pyrazolo[4,3-b]pyridin-7-amine]
–	–	7.07	5.98	5.99	–	CCOc1ncccc1-c1cc(NC)c2c(cnn2C(C)C)n1 [Example 13, 5-(2-ethoxy-3-pyridyl)-1-isopropyl-N-methyl-pyrazolo[4,3-b]pyridin-7-amine]
–	–	6.19	5.46	5.96	–	CCOc1ncccc1-c1cc(N2CCCC2)c2c(cnn2C)n1 [Example 14, 5-(2-ethoxy-3-pyridyl)-1-methyl-7-pyrrolidin-1-yl-pyrazolo[4,3-b]pyridine]
–	–	6.81	5.72	6.00	–	CCOc1ncccc1-c1nc2c(C)nn(CC)c2cc1C [Example 15, 5-(2-ethoxy-3-pyridyl)-1-ethyl-3,6-dimethyl-pyrazolo[4,3-b]pyridine]
–	–	6.89	5.74	6.34	–	CCOc1ncccc1-c1cc(N2CCCC2)c2c(cnn2CC)n1 [Example 16, 5-(2-ethoxy-3-pyridyl)-1-ethyl-7-pyrrolidin-1-yl-pyrazolo[4,3-b]pyridine]
50	–	7.08	–	6.45	–	CCOc1ncccc1-c1cc(N2CCCC2)c2c(cnn2C(C)C)n1 [Example 17, 5-(2-ethoxy-3-pyridyl)-1-isopropyl-7-pyrrolidin-1-yl-pyrazolo[4,3-b]pyridine]
